In EP0044212B1, “Herbicidal o-alkylsulfonyloxy- and o-alkylsulfonylamino-benzenesulfonamides” (E.I. DU PONT DE NEMOURS AND COMPANY, priority 1980, dated 1982):

Key:
Cotton [1] = experiment: Test F over-the-top soil/foliage treatment; type: in vivo; details: soil/foliage spray, ~14 days
In short: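 Greenhouse, Woodstown sandy loam, pots; overall spray to foliage + soil ~14 d after planting; compound in non-phytotoxic solvent; visual rating vs untreated controls ~14 d post-treatment.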

Barley = experiment: Test C pre-emergence on Fallsington silt loam soil; type: in vivo; details: 0.03 kg/ha, 28 days
From the text: (§1) The high herbicidal activity of two of the compounds from within the scope of the invention is evident from the results obtained in this test. The experiment concerned pre-emergence applications on soil. The containers used were 25 cm diameter plastic pots filled with Fallsington silt loam. One set of pots was planted to weeds, the seeds of which were uniformly mixed with the top 1.2 cm layer of soil. The species selected were: johnsongrass (Sorghum halepense), barnyardgrass (Echinochloa crusgalli), crabgrass (Digitaria sanguinalis), giant foxtail (Setaria faberii), velvetleaf (Abutilon theophrasti), jimsonweed (Datura stramonium), mustard (Brassica arvensis), and pigweed (Amaranthus retroflexus). Another set of pots were planted to the following crops with from one to four species per pot: corn (planting depth 3.7 cm), cotton, soybeans, sunflower, Clinton oats, wheat, Black Valentine beans, rice, sorghum, peas, flax, and peanuts (all at 2.5 cm depth), cucumbers, cabbage, alfalfa, safflower, sugarbeets, tomato, spinach, barley, and Kentucky bluegrass (all at 1.2 cm depth). Immediately after planting, the test chemical was applied to the soil surfaces dissolved in a non-phytotoxic solvent. One pot from the weed phase and one of each of the crop species were left untreated for the purpose of comparison. The treated and untreated pots were promptly watered with approximatley 4 mm of simultated rainfall and then held in a greenhouse for several weeks. Visual weed and crop response ratings were made 28 days after treatment utilizing the rating system as described above for Test A. The data are given in Table C.

Rice [2] = experiment: Test C pre-emergence on Fallsington silt loam soil; type: in vivo; details: 0.03 kg/ha, 28 days
From the text: as §1

Tomato = experiment: Test C pre-emergence on Fallsington silt loam soil; type: in vivo; details: 0.03 kg/ha, 28 days
From the text: as §1

Sunflower = experiment: Test C pre-emergence on Fallsington silt loam soil; type: in vivo; details: 0.03 kg/ha, 28 days
From the text: as §1

Flax = experiment: Test C pre-emergence on Fallsington silt loam soil; type: in vivo; details: 0.03 kg/ha, 28 days
From the text: as §1

Wheat = experiment: Test C pre-emergence on Fallsington silt loam soil; type: in vivo; details: 0.03 kg/ha, 28 days
From the text: as §1

Rice [3] = experiment: Test E application to paddy water after transplanting of rice; type: in vivo
From the text: (§2) Test samples were formulated and applied directly to the paddy water three days after transplanting of rice. The test was maintained in a greenhouse, and plant response ratings were taken at the stated intervals after application.

Barnyardgrass [4] = experiment: Test F over-the-top soil/foliage treatment; type: in vivo, Echinochloa crusgalli; parameters: scale not given here; details: soil/foliage spray, ~14 days
Method: (§3) The test chemicals, dissolved in a non-phytotoxic solvent, were applied in an overall spray to the foliage and surrounding […] of selected plant species. […] Approximately fourteen days after treatment, all species were visually compared to untreated controls and rated for response to treatment.
(§4) All plant species were seeded in Woodstown sandy loam soil and grown in a greenhouse. The following species were grown in soil contained in plastic pots (25 cm diameter by 13 cm deep): soybeans, cotton, alfalfa, corn, rice, wheet, sorghum, velvetleaf (Abutilon theophrasti), sesbania (Sesbania exaltata), Cassia (Cassia tora), morningglory (Ipomoea hederacea), jimsonweed (Datura stramonium), cocklebur (Xanthium pensylvanicum), crabgrass (Digitaria spp.), nutsedge (Cyperus rotundus), barnyardgrass (Echinochloa crusgalli), giant foxtail (Setaria faberii) and wild oats (Avena fatua). The following species were grown in soil in a paper cup (12 cm diameter by 13 cm deep): sunflower, sugarbeets, and mustard. All plants were sprayed approximately 14 days after planting.

Water Chestnut = experiment: Test E application to paddy water after transplanting of rice; type: in vivo, Eleocharis spp.
From the text: as §2

Barnyardgrass [5] = experiment: as above; type: in vivo, Echinochloa spp.
From the text: as §2

Mustard = experiment: Test B pre-emergence on Fallsington silt loam; type: in vivo, Brassica arvensis; details: 28 days
From the text: (§5) Two plastic bulb pans were filled with fertilized and limed Fallsington silt loam soil. One pan was planted with corn, sorghum, Kentucky bluegrass and several grassy weeds. The other pan was planted with cotton, soybeans, purple nutsedge (Cyperus rotundus), and several broadleaf weeds. The following grassy and broadleaf weeds were planted: crabgrass (Digitaria sanguinalis), barnyardgrass (Echinochloa crusgalli), wild oats (Avena fatua), johnsongrass (Sorghum halepense), dallisgrass (Paspalum dilatatum), giant foxtail (Setaria faberii), cheatgrass (Bromus secalinus), mustard (Brassica arvensis), cocklebur (Xanthium pensylvanicum), pigweed (Amaranthus retroflexus), morningglory (Ipomoea hederacea), cassia (Cassia tora), teaweed (Sida spinosa), velvetleaf (Abutilon theophrasti), and jimsonweed (Datura stramonium). A 12.5 cm diameter plastic pot was also filed with prepared soil and planted with rice and wheat. Another 12.5 cm pot was planted with sugarbeets. The above four containers were treated pre- emergence with several test compounds within the scope of the invention.
(§6) Twenty-eight days after treatment, the plants were evaluated and visually rated for response to the chemical treatments utilizing the rating system described previously for Test A. The data are summarized in Table B.

Teaweed = experiment: Test B pre-emergence on Fallsington silt loam; type: in vivo, Sida spinosa; details: 28 days
From the text: as §5, §6

Velvetleaf = experiment: Test B pre-emergence on Fallsington silt loam; type: in vivo, Abutilon theophrasti; details: 28 days
From the text: as §5, §6

Cocklebur = experiment: Test F over-the-top soil/foliage treatment; type: in vivo, Xanthium pensylvanicum; details: soil/foliage spray, ~14 days
Method: as §3, §4

Broadleaves = experiment: Test C pre-emergence on Fallsington silt loam soil; type: in vivo, velvetleaf, jimsonweed, mustard, pigweed; details: 28 days
From the text: as §1, with “The treated and untreated pots were promptly watered with approximatley 4 mm of simultated rainfall and then held in a greenhouse for several weeks. Visual weed and crop response ratings were made 28 days after treatment utilizing the rating system as described above for Test A. The data are given in Table C.” left out

Sorghum = experiment: Test B pre-emergence on Fallsington silt loam; type: in vivo; details: 28 days
From the text: as §5, §6

Cotton [6] = experiment: Test B pre-emergence on Fallsington silt loam; type: in vivo; details: 28 days
From the text: as §5, §6

Nutsedge = experiment: Test B pre-emergence on Fallsington silt loam; type: in vivo, Cyperus rotundus; details: 28 days
From the text: as §5, §6

Rice [7] = experiment: Test B pre-emergence on Fallsington silt loam; type: in vivo; details: 28 days
From the text: as §5, §6

Jimsonweed = experiment: Test B pre-emergence on Fallsington silt loam; type: in vivo, Datura stramonium; details: 28 days
From the text: as §5, §6

COc1cc(OC)nc(NC(=O)NS(=O)(=O)c2ccccc2OS(C)(=O)=O)n1 [Compound 1, N-[(4,6-Dimethoxypyrimidin-2-yl)aminocarbonyl]-2-hydroxybenzenesulfonamide, methanesulfonate]
Cotton response rating (Cotton [1]; 0.003 kg/ha): 10C | Barley response rating (Barley): 3G | Rice response rating (Rice [2]): 6G | Tomato response rating (Tomato): 4G | Sunflower response rating (Sunflower): 5G | Flax response rating (Flax): 6G | Wheat response rating (Wheat): 2G | Rice 4 Days (Rice [3]; 1 g/ha in paddy water): 0 | Rice 4 Weeks (Rice [3]; 1 g/ha in paddy water): 0 | Rice 4 Days (Rice [3]; 4 g/ha in paddy water): 0 | Rice 4 Weeks (Rice [3]; 4 g/ha in paddy water): 0 | Rice 4 Days (Rice [3]; 8 g/ha in paddy water): 0 | Rice 4 Weeks (Rice [3]; 8 g/ha in paddy water): 0 | Barnyardgrass response rating (Barnyardgrass [4]; 0.015 kg/ha): 10C | Barnyardgrass response rating (Barnyardgrass [4]; 0.06 kg/ha): 10C | Water Chestnut** 4 Weeks (Water Chestnut; 1 g/ha in paddy water): 7G | Water Chestnut** 4 Weeks (Water Chestnut; 4 g/ha in paddy water): 8G | Water Chestnut** 4 Weeks (Water Chestnut; 8 g/ha in paddy water): 9G | Barnyardgrass* 4 Weeks (Barnyardgrass [5]; 1 g/ha in paddy water): 0 | Barnyardgrass* 4 Weeks (Barnyardgrass [5]; 4 g/ha in paddy water): 0 | Barnyardgrass* 4 Weeks (Barnyardgrass [5]; 8 g/ha in paddy water): 0 | Mustard response rating (Mustard; 0.03 kg/ha): 10C | Mustard response rating (Mustard; 0.12 kg/ha): 10C | Teaweed response rating (Teaweed; 0.03 kg/ha): 6G | Velvetleaf response rating (Velvetleaf; 0.12 kg/ha): 10C | Cocklebur response rating (Cocklebur; 0.003 kg/ha): 5G | Cocklebur response rating (Cocklebur; 0.007 kg/ha): 7G | Broadleaves response rating (Broadleaves; 0.0035 kg/ha): 3G | Broadleaves response rating (Broadleaves; 0.0075 kg/ha): 4G | Sorghum response rating (Sorghum; 0.12 kg/ha): 10C | Cotton response rating (Cotton [6]; 0.03 kg/ha): 8G

CCCS(=O)(=O)Oc1ccccc1S(=O)(=O)NC(=O)Nc1nc(C)nc(OC)n1 [Compound 39, 2-hydroxy-N-[(4-methoxy-6-methyl-1,3,5-triazin-2-yl)aminocarbonyl]benzenesulfonamide, 1-propanesulfonate]
Nutsedge response rating (Nutsedge; 0.06 kg/ha): 4G | Nutsedge response rating (Nutsedge; 0.25 kg/ha): 6G | Barnyardgrass response rating (Barnyardgrass [4]; 0.007 kg/ha): 2G | Barnyardgrass response rating (Barnyardgrass [4]; 0.015 kg/ha): 0 | Barnyardgrass response rating (Barnyardgrass [4]; 0.03 kg/ha): 3G | Barnyardgrass response rating (Barnyardgrass [4]; 0.06 kg/ha): 0 | Barnyardgrass response rating (Barnyardgrass [4]; 0.12 kg/ha): 0 | Sorghum response rating (Sorghum; 0.06 kg/ha): 4G | Rice response rating (Rice [7]; 0.06 kg/ha): 0 | Rice response rating (Rice [7]; 0.25 kg/ha): 0

CCCS(=O)(=O)Oc1ccccc1S(=O)(=O)NC(=O)Nc1nc(OC)cc(OC)n1 [Compound 36, N-[(4,6-dimethoxypropimidin-2-yl)aminocarbonyl]-2-hydroxybenzenesulfonamide, 1-propanesulfonate]
Nutsedge response rating (Nutsedge; 0.06 kg/ha): 7G | Rice 1 Week (Rice [3]; 25 g/ha in paddy water): 0 | Rice 8 Weeks (Rice [3]; 25 g/ha in paddy water): 0 | Rice 1 Week (Rice [3]; 100 g/ha in paddy water): 0 | Rice 8 Weeks (Rice [3]; 100 g/ha in paddy water): 0 | Water Chestnut** 8 Weeks (Water Chestnut; 25 g/ha in paddy water): 10C | Water Chestnut** 8 Weeks (Water Chestnut; 100 g/ha in paddy water): 10C | Barnyardgrass* 8 Weeks (Barnyardgrass [5]; 25 g/ha in paddy water): 0 | Barnyardgrass* 8 Weeks (Barnyardgrass [5]; 100 g/ha in paddy water): 0 | Jimsonweed response rating (Jimsonweed; 0.06 kg/ha): 3G | Rice response rating (Rice [7]; 0.06 kg/ha): 3G | Rice response rating (Rice [7]; 0.25 kg/ha): 5G | Cotton response rating (Cotton [6]; 0.06 kg/ha): 4G

Cc1cc(C)nc(NC(=O)NS(=O)(=O)c2ccccc2OS(C)(=O)=O)n1 [Compound 3, N-[(4,6-dimethylpyrimidin-2-yl)aminocarbonyl]-2-hydroxybenzenesulfonamide, methanesulfonate]
Cotton response rating (Cotton [1]; 0.007 kg/ha): 10C | Nutsedge response rating (Nutsedge; 0.007 kg/ha): 0 | Nutsedge response rating (Nutsedge; 0.015 kg/ha): 0 | Barnyardgrass response rating (Barnyardgrass [4]; 0.015 kg/ha): 9C | Barnyardgrass response rating (Barnyardgrass [4]; 0.06 kg/ha): 10C | Jimsonweed response rating (Jimsonweed; 0.007 kg/ha): 0 | Jimsonweed response rating (Jimsonweed; 0.015 kg/ha): 0 | Mustard response rating (Mustard; 0.007 kg/ha): 5G | Mustard response rating (Mustard; 0.03 kg/ha): 10C | Mustard response rating (Mustard; 0.12 kg/ha): 10C | Teaweed response rating (Teaweed; 0.015 kg/ha): 0 | Teaweed response rating (Teaweed; 0.03 kg/ha): 4G | Teaweed response rating (Teaweed; 0.12 kg/ha): 10C | Velvetleaf response rating (Velvetleaf; 0.007 kg/ha): 0 | Velvetleaf response rating (Velvetleaf; 0.015 kg/ha): 0 | Cocklebur response rating (Cocklebur; 0.003 kg/ha): 3G | Sorghum response rating (Sorghum; 0.007 kg/ha): 2G | Sorghum response rating (Sorghum; 0.015 kg/ha): 4G | Sorghum response rating (Sorghum; 0.03 kg/ha): 10C | Rice response rating (Rice [7]; 0.007 kg/ha): 3G | Cotton response rating (Cotton [6]; 0.007 kg/ha): 0 | Cotton response rating (Cotton [6]; 0.015 kg/ha): 0
